The experiment concerns the target T1, human orexin type 2 receptor (hOX2R) (Homo sapiens, UniProt O43614).
T1 construct: expressed in transfected cells
T1 sequence (O43614 1-444): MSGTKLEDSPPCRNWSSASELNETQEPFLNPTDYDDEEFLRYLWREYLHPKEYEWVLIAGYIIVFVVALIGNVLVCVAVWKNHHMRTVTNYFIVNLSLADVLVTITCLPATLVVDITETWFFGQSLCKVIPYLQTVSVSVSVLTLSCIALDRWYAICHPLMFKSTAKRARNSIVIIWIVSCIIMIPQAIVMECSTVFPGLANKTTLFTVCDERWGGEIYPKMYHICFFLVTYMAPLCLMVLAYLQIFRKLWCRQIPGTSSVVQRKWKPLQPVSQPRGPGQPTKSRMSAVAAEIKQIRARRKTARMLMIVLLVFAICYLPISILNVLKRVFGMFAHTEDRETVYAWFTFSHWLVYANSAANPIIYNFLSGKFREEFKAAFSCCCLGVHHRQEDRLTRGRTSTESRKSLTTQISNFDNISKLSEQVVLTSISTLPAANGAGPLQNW
Description: Measurement of orexin type 2 receptor agonist activity (FLIPR calcium fluorescence). The class given is cell-based. Particulars: CHO cells expressing hOX2R, FLIPR calcium fluorescence; for EC50: read-out: hOx2 pEC50 (converted); for Emax: CHO, read-out: hOx2 Emax (%). The gist of the method:
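Agonism was read as fluorescence in cells stably expressing human OX2R. E. is the response at 10 μM relative to orexin A as full agonist (100%).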

Structures are written as SMILES.

In the case of `[2H]c1c([2H])c([2H])c(-c2cc(F)cc(C[C@H]3[C@@H](NS(C)(=O)=O)C4(CC4)CN3C(=O)[C@H]3CCO3)c2F)c([2H])c1[2H]` [Compound 348, N-((6S,7S)-6-((2,5-difluoro-[1,1′-biphenyl]-3-yl-2′,3′,4′,5′,6′-d5)methyl)-5-((R)-oxetane-2-carbonyl)-5-azaspiro[2.4]heptan-7-yl)methanesulfonamide], the EC50 was 1 to 10 nM and the Emax (commonly the maximal effect, on the per cent scale that the assay sets) is 90 to 100%.
For `O=C([C@H]1CCO1)N1CC2(CC2)[C@H](NS(=O)(=O)C2CC2)[C@@H]1Cc1cc(F)cc(-c2ccccc2)c1F` [Compound 349, N-((6S,7S)-6-((2,5-difluoro-[1,1′-biphenyl]-3-yl)methyl)-5-((R)-oxetane-2-carbonyl)-5-azaspiro[2.4]heptan-7-yl)cyclopropanesulfonamide] the same measures were 1 to 10 nM and 90 to 100%.
For `CS(=O)(=O)N[C@@H]1[C@H](Cc2cc(F)cc(-c3ccccc3F)c2F)N(C(=O)[C@H]2CCO2)CC12CC2` [Compound 350, N-((6S,7S)-5-((R)-oxetane-2-carbonyl)-6-((2,2′,5-trifluoro-[1,1′-biphenyl]-3-yl)methyl)-5-azaspiro[2.4]heptan-7-yl)methanesulfonamide] the same measures were 10 to 100 nM and 90 to 100%.
The like results for `CS(=O)(=O)N[C@@H]1[C@H](Cc2cccc(-c3ccccc3)c2F)N(C(=O)[C@H](O)C(F)F)CC12CC2` [Compound 351, N-((6S,7S)-5-((S)-3,3-difluoro-2-hydroxypropanoyl)-6-((2-fluoro-[1,1′-biphenyl]-3-yl)methyl)-5-azaspiro[2.4]heptan-7-yl)methanesulfonamide] were, in that order, 10 to 100 nM and 90 to 100%.
`CS(=O)(=O)N[C@@H]1[C@H](Cc2cc(F)cc(-c3ccccc3)c2F)N(C(=O)[C@H](O)C2CC2)CC12CC2` [Compound 352, N-((6S,7S)-5-((R)-2-cyclopropyl-2-hydroxyacetyl)-6-((2,5-difluoro-[1,1′-biphenyl]-3-yl)methyl)-5-azaspiro[2.4]heptan-7-yl)methanesulfonamide]: the EC50 was 1 to 10 nM and the Emax lay in the range of 90 to 100%.
In the case of `CN(C)S(=O)(=O)N[C@@H]1[C@H](Cc2cc(F)cc(-c3ccccc3)c2F)N(C(=O)[C@H](O)CF)CC12CC2` [Compound 353], the EC50 was 1 to 10 nM and the Emax fell in the range of 90 to 100%.
For `CN(C)C(=O)N1CC2(CC2)[C@H](NS(C)(=O)=O)[C@@H]1Cc1cc(F)cc(-c2ccccc2)c1F` [Compound 354, (6S,7S)-6-((2,5-difluoro-[1,1′-biphenyl]-3-yl)methyl)-N,N-dimethyl-7-(methylsulfonamido)-5-azaspiro[2.4]heptane-5-carboxamide] the same measures were 10 to 100 nM and 90 to 100%.
As to `[2H]C([2H])([2H])N(C(=O)N1CC2(CC2)[C@H](NS(C)(=O)=O)[C@@H]1Cc1cc(F)cc(-c2ccccc2)c1F)C([2H])([2H])[2H]` [Compound 355, (6S,7S)-6-((2,5-difluoro-[1,1′-biphenyl]-3-yl)methyl)-N,N-bis(methyl-d3)-7-(methylsulfonamido)-5-azaspiro[2.4]heptane-5-carboxamide], the EC50 is 10 to 100 nM and the Emax lay in the range of 90 to 100%.
For `COCCNC(=O)N1CC2(CC2)[C@H](NS(=O)(=O)CF)[C@@H]1Cc1cccc(-c2ccccc2)c1F` [Compound 357, (6S,7S)-6-((2-fluoro-[1,1′-biphenyl]-3-yl)methyl)-7-((fluoromethyl)sulfonamido)-N-(2-methoxyethyl)-5-azaspiro[2.4]heptane-5-carboxamide] the same measures were 10 to 100 nM and 90 to 100%.
Regarding `CC(C#N)C(=O)N1CC2(CC2)[C@H](NS(C)(=O)=O)[C@@H]1Cc1cccc(-c2ccccc2)c1F` (stereo partly drawn) [Compound 358, N-((6S,7S)-5-(2-cyanopropanoyl)-6-((2-fluoro-[1,1′-biphenyl]-3-yl)methyl)-5-azaspiro[2.4]heptan-7-yl)methanesulfonamide], the EC50 was 1 to 10 nM and the Emax was in the range of 90 to 100%.
As for `[2H]c1ccc(-c2cc(F)cc(C[C@H]3[C@@H](NS(C)(=O)=O)C4(CC4)CN3C(=O)[C@H]3CCO3)c2F)cc1` [Compound 359], the EC50 was 10 to 100 nM and the maximal effect (Emax) was in the range of 90 to 100%.
The like results for `O=C([C@H](O)C(F)F)N1CC2(CC2)[C@H](NS(=O)(=O)CF)[C@@H]1Cc1cc(F)cc(-c2ccccc2)c1F` [Compound 360, N-((6S,7S)-5-((S)-3,3-difluoro-2-hydroxypropanoyl)-6-((2,5-difluoro-[1,1′-biphenyl]-3-yl)methyl)-5-azaspiro[2.4]heptan-7-yl)-1-fluoromethanesulfonamide] were, in that order, 1 to 10 nM and 90 to 100%.
The like results for `CC(C)(O)C(=O)N1CC2(CC2)[C@H](NS(C)(=O)=O)[C@@H]1Cc1cccc(-c2ccccc2F)c1F` [Compound 361, N-((6S,7S)-6-((2,2'-difluoro-[1,1′-biphenyl]-3-yl)methyl)-5-(2-hydroxy-2-methylpropanoyl)-5-azaspiro[2.4]heptan-7-yl)methanesulfonamide] were, in that order, 10 to 100 nM and 80 to 90%.
Take `N#CCS(=O)(=O)N[C@@H]1[C@H](Cc2cccc(-c3ccccc3)c2F)N(C(=O)[C@H]2CCO2)CC12CC2` [Compound 362, 1-cyano-N-((6S,7S)-6-((2-fluoro-[1,1′-biphenyl]-3-yl)methyl)-5-((R)-oxetane-2-carbonyl)-5-azaspiro[2.4]heptan-7-yl)methanesulfonamide]: the EC50 was 10 to 100 nM and the Emax lay in the range of 90 to 100%.
`[2H]C([2H])([2H])C([2H])([2H])NC(=O)N1CC2(CC2)[C@H](NS(C)(=O)=O)[C@@H]1Cc1cccc(-c2ccccc2)c1OC` [Compound 363, (6S,7S)-N-(ethyl-d5)-6-((2-methoxy-[1,1′-biphenyl]-3-yl)methyl)-7-(methylsulfonamido)-5-azaspiro[2.4]heptane-5-carboxamide]: the EC50 is 10 to 100 nM and the maximal response (Emax) lay within 70 to 80%.
As to `C[C@H](CO)NC(=O)N1CC2(CC2)[C@H](NS(=O)(=O)C(F)F)[C@@H]1Cc1cccc(-c2ccccc2)c1F` [Compound 364, (6S,7S)-7-((difluoromethyl)sulfonamido)-6-((2-fluoro-[1,1′-biphenyl]-3-yl)methyl)-N-((R)-1-hydroxypropan-2-yl)-5-azaspiro[2.4]heptane-5-carboxamide], the EC50 was 0.0794 to 1 nM and the Emax was in the range of 90 to 100%.
The like results for `[2H]c1c([2H])c([2H])c(-c2cccc(C[C@H]3[C@@H](NS(=O)(=O)CF)C4(CC4)CN3C(=O)[C@H]3CCO3)c2F)c([2H])c1[2H]` [Compound 365, 1-fluoro-N-((6S,7S)-6-((2-fluoro-[1,1′-biphenyl]-3-yl-2′,3′,4′,5′,6′-d5)methyl)-5-((R)-oxetane-2-carbonyl)-5-azaspiro[2.4]heptan-7-yl)methanesulfonamide] were, in that order, 1 to 10 nM and 90 to 100%.
The like results for `O=C(NCC1COC1)N1CC2(CC2)[C@H](NS(=O)(=O)CF)[C@@H]1Cc1cccc(-c2ccccc2)c1F` [Compound 366, (6S,7S)-6-((2-fluoro-[1,1′-biphenyl]-3-yl)methyl)-7-((fluoromethyl)sulfonamido)-N-(oxetan-3-ylmethyl)-5-azaspiro[2.4]heptane-5-carboxamide] were, in that order, 1 to 10 nM and 90 to 100%.
For `O=C(NCCF)N1CC2(CC2)[C@H](NS(=O)(=O)CF)[C@@H]1Cc1cccc(-c2ccccc2)c1F` [Compound 367, (6S,7S)-6-((2-fluoro-[1,1′-biphenyl]-3-yl)methyl)-N-(2-fluoroethyl)-7-((fluoromethyl)sulfonamido)-5-azaspiro[2.4]heptane-5-carboxamide] the same measures were 0.0794 to 1 nM and 90 to 100%.
With `O=C(NC[C@@H]1CCO1)N1CC2(CC2)[C@H](NS(=O)(=O)C(F)F)[C@@H]1Cc1cccc(-c2ccccc2)c1F` [Compound 368, (6S,7S)-7-((difluoromethyl)sulfonamido)-6-((2-fluoro-[1,1′-biphenyl]-3-yl)methyl)-N-(((S)-oxetan-2-yl)methyl)-5-azaspiro[2.4]heptane-5-carboxamide], the EC50 is 1 to 10 nM and the Emax was in the range of 90 to 100%.
For `O=C(NC(CF)CF)N1CC2(CC2)[C@H](NS(=O)(=O)CF)[C@@H]1Cc1cccc(-c2ccccc2)c1F` [Compound 369, (6S,7S)-N-(1,3-difluoropropan-2-yl)-6-((2-fluoro-[1,1′-biphenyl]-3-yl)methyl)-7-((fluoromethyl)sulfonamido)-5-azaspiro[2.4]heptane-5-carboxamide] the same measures were 1 to 10 nM and 90 to 100%.
The like results for `COC1(CNC(=O)N2CC3(CC3)[C@H](NS(=O)(=O)CF)[C@@H]2Cc2cccc(-c3ccccc3)c2F)CC1` [Compound 370, (6S,7S)-6-((2-fluoro-[1,1′-biphenyl]-3-yl)methyl)-7-((fluoromethyl)sulfonamido)-N-((1-methoxycyclopropyl)methyl)-5-azaspiro[2.4]heptane-5-carboxamide] were, in that order, 0.0794 to 1 nM and 90 to 100%.
For `O=C(NCCF)N1CC2(CC2)[C@H](NS(=O)(=O)CF)[C@@H]1Cc1cc(F)cc(-c2ccccc2)c1F` [Compound 371, (6S,7S)-6-((2,5-difluoro-[1,1′-biphenyl]-3-yl)methyl)-N-(2-fluoroethyl)-7-((fluoromethyl)sulfonamido)-5-azaspiro[2.4]heptane-5-carboxamide] the same measures were 1 to 10 nM and 90 to 100%.
